What was measured:
HeLa cells [1] = test: MTT cytotoxicity assay on HeLa cells; assay type: cell-based, human; settings: for IC50: MTT, 72 h continuous exposure, triplicate, range 0.05 to 50 µM; for Selectivity Index (SI) (Vero/HeLa): ratio IC50 (Vero)/IC50 (HeLa)
Description: (§1) The potential in vitro antitumor activity of compounds 4a–l was initially tested for their cytotoxic effects on H1975, HL-60, HCT116 and HeLa cancer cell lines and Vero cells. […]
(§2) Cancer cell lines were grown at 37 °C in humidified atmosphere and 5% CO2. H1975, HL60, HTC116 and Vero cells were grown in RPMI 1640 culture medium supplemented with 10% fetal bovine serum and (100 UI/mL) penicillin-streptomicyn. HeLa cells were grown in EMEM culture medium, supplemented with 10% fetal bovine serum and (100 UI/mL) penicillin-streptomicyn.
(§3) Cytotoxicity assays were performed by using the MTT reduction method as described previously. Briefly, cancer cell lines were plated in a flat-bottom 96-wells plate at 10,000 cells per well density. […] Ten µL of MTT was added at a final concentration of 0.5 mg/mL, incubated at 37 °C for 4 h, and then solubilized with 10% sodium dodecyl sulfate (SDS) in 0.1 mM HCl and incubated overnight at 37 °C. Formazan formation was measured at 570 nm in a multiwell reader (StatFax 4200, Awareness Technology, Inc. Palm City, FL, USA).
(§4) Values are expressed as means ± standard deviations from three independent experiments. IC50 values, (Compound concentration necessary to decrease at 50% the MTT reduction) and the two-way analysis of variance (ANOVA) test were performed when necessary with Prism GraphPad 6.0f software (GraphPad Software Inc., San Diego, CA, USA).

H1975 (lung) cells = test: MTT cytotoxicity assay on H1975 cells; assay type: cell-based, human; settings: for IC50: MTT, 72 h continuous exposure, triplicate, range 0.05 to 50 µM; for Selectivity Index (SI) (Vero/H1975): ratio IC50 (Vero)/IC50 (H1975)
Description: as §1, §2, §3, §4

Vero cells = test: MTT cytotoxicity assay on Vero cells; assay type: cell-based; settings: Chlorocebus sabaeus, 72 h continuous exposure, triplicate, range 0.05 to 50 µM
[2] = system: HCT116 (colorectal) cells; test: MTT cytotoxicity assay on HCT116 cells; assay type: cell-based, human; settings: for IC50: MTT, 72 h continuous exposure, triplicate, range 0.05 to 50 µM; for Selectivity Index (SI) (Vero/HCT116): ratio IC50 (Vero)/IC50 (HCT116)
Description: as §1, §2, §3, §4

HL-60 (leukemia) cells = test: MTT cytotoxicity assay on HL-60 cells; assay type: cell-based, human; settings: 72 h continuous exposure, triplicate, range 0.05 to 50 µM
Description: as §1, §2, §3, §4

H1975 cells = test: Apoptosis/viability assay by FACS with propidium iodide, H1975; assay type: cell-based, human; settings: H1975, 50 µM, 16 h, PI staining
Description: (§5) To evaluate sensitivity to 4f, 4j and 4k, Vero, HTC116, H1975 and Hela were treated with concentrations of 50 µM for 16 h. Fifty µM etoposide was used as positive control. As it can be seen in Figure 5, 4f, 4j and 4k induced apoptosis as a prevalent type of cell death, in high percentages (>70%), in every cancer cell line. Moreover, 4f, 4j, and 4k induced an apoptotic cell response greater than etoposide.
(§6) Cell viability was analyzed by FACS as previously described. In this assay, after setting the baseline to exclude cell debris, cells impermeable to propidium iodide (PI negative) are considered as viable. Two populations of PI-permeable dead cells are distinguished based on fluorescence intensity, corresponding to either hypodiploid apoptotic cells or necrotic cells with intact DNA. Here, H1975, HTC116, and HeLa cells were incubated with concentrations of 50 µM of each compound for 16 h at 37 °C. Cells were harvested and stained with 10 µg/mL of propidium iodide to determine cell viability. Samples containing roughly 1 × 10^4 cells were evaluated by flow cytometry (FACScanto II; Becton Dickinson, Mountain View, CA, USA) and analyzed using the software program FCS Express v5.

HeLa cells [3] = test: Apoptosis/viability assay by FACS with propidium iodide, HeLa; assay type: cell-based, human; settings: 50 µM, 16 h, PI staining
Description: as §5, §6

HTC116 cells = test: Apoptosis/viability assay by FACS with propidium iodide, HTC116; assay type: cell-based, human; settings: HTC116, 50 µM, 16 h, PI staining
Description: as §5, §6

| Structure (SMILES) | IC50 (HeLa cells [1]; Homo sapiens, HeLa, 72 h) [µM] | Selectivity Index (SI) (Vero/HeLa) (HeLa cells [1]) | melting point [°C] | IC50 (H1975 (lung) cells; Homo sapiens, NCI-H1975, 72 h) [µM] | Selectivity Index (SI) (Vero/H1975) (H1975 (lung) cells) | IC50 (Vero cells) [µM] | IC50 ([2]; Homo sapiens, HCT-116, 72 h) [µM] | Selectivity Index (SI) (Vero/HCT116) [2] | IC50 (HL-60 (leukemia) cells; Homo sapiens, HL-60, 72 h) [µM] | apoptosis (percentage of cells) (H1975 cells) [%] | apoptosis (percentage of cells) (HeLa cells [3]) [%] | apoptosis (percentage of cells) (HTC116 cells) [%] | IC50 (HeLa cells [1]) [µM] | IC50 (H1975 (lung) cells) [µM] | IC50 [2] [µM] | IC50 (HL-60 (leukemia) cells) [µM] |
| --- | --- | --- | --- | --- | --- | --- | --- | --- | --- | --- | --- | --- | --- | --- | --- | --- |
| CC(C)CCn1cnc2c(NCc3ccccc3)nc(NCc3ccccc3)nc21 [Compound 4e, N^2,N^6-Dibenzyl-9-isopentyl-9H-purine-2,6-diamine] | 2.7 ± 0.13 | 0.93 | 69 to 70 | 8.6 ± 0.18 | 0.29 | 2.5 ± 0.14 | 5.1 ± 0.14 | 0.49 | > 50 |  |  |  |  |  |  |  |
| COc1cc([C@@H]2c3cc4c(cc3[C@@H](O[C@@H]3O[C@@H]5CO[C@@H](C)O[C@H]5[C@H](O)[C@H]3O)[C@H]3COC(=O)[C@H]23)OCO4)cc(OC)c1O [Etoposide, reference compound] | 8.2 ± 0.33 |  |  | 8 ± 0.33 |  | > 25 | 2.8 ± 0.24 |  | 6.2 ± 0.18 |  |  |  |  |  |  |  |
| COc1ccc(CNc2nc(NCc3ccccc3)nc3c2ncn3CCC(C)C)cc1 [Compound 4k, N^2-Benzyl-9-isopentyl-N^6-(4-methoxybenzyl)-9H-purine-2,6-diamine] | 5.4 ± 0.32 | 6.30 |  | 5.6 ± 0.23 | 6.07 | 34 ± 0.13 | 11 ± 0.26 | 3.09 | > 50 | > 70 | > 70 | > 70 |  |  |  |  |
| CCCCCn1cnc2c(NCc3ccc(OC)cc3)nc(NCc3ccccc3)nc21 [Compound 4j, N^2-Benzyl-N^6-(4-methoxybenzyl)-9-pentyl-9H-purine-2,6-diamine] | 9.5 ± 0.14 | 2.74 |  | 2.3 ± 0.13 | 11.30 | 26 ± 0.18 | 8 ± 0.21 | 3.25 | > 50 | > 70 | > 70 | > 70 |  |  |  |  |
| CC(C)n1cnc2c(NCc3ccccc3)nc(NCc3ccccc3)nc21 [Compound 4a, N^2,N^6-Dibenzyl-9-isopropyl-9H-purine-2,6-diamine] | 32 ± 0.13 | 0.63 |  | 14 ± 0.26 | 1.43 | 20 ± 0.11 | 13 ± 0.12 | 1.54 | 26 ± 0.13 |  |  |  |  |  |  |  |
| COc1ccc(CNc2nc(NCc3ccccc3)nc3c2ncn3CC(C)C)cc1 [Compound 4i, N^2-Benzyl-9-isobutyl-N^6-(4-methoxybenzyl)-9H-purine-2,6-diamine] | 4.9 ± 0.16 | 0.39 | 110 to 112 | 3.4 ± 0.28 | 0.56 | 1.9 ± 0.24 | 1.6 ± 0.12 | 1.19 | > 50 |  |  |  |  |  |  |  |
| CCCCCn1cnc2c(NCc3ccccc3)nc(NCc3ccccc3)nc21 [Compound 4d, N^2,N^6-Dibenzyl-9-pentyl-9H-purine-2,6-diamine] | 10.1 ± 0.14 | 0.25 | 83 to 86 | 12 ± 0.19 | 0.21 | 2.5 ± 0.2 | 11 ± 0.11 | 0.23 | > 50 |  |  |  |  |  |  |  |
| CCCCCCn1cnc2c(NCc3ccccc3)nc(NCc3ccccc3)nc21 [Compound 4f, N^2,N^6-Dibenzyl-9-hexyl-9H-purine-2,6-diamine] | 5.3 ± 0.13 | 4.91 |  | 9.9 ± 0.18 | 2.63 | 26 ± 0.12 | 3 ± 0.12 | 8.67 | > 50 | > 70 | > 70 | > 70 |  |  |  |  |
| CCCCn1cnc2c(NCc3ccccc3)nc(NCc3ccccc3)nc21 [Compound 4b, N^2,N^6-Dibenzyl-9-butyl-9H-purine-2,6-diamine] | 18 ± 0.14 | 0.31 | 113 to 115 | 28 ± 0.08 | 0.20 | 5.6 ± 0.15 | 7.2 ± 0.16 | 0.78 | > 50 |  |  |  |  |  |  |  |
| CCCCn1cnc2c(NCc3ccc(OC)cc3)nc(NCc3ccccc3)nc21 [Compound 4h, N^2-Benzyl-9-butyl-N^6-(4-methoxybenzyl)-9H-purine-2,6-diamine] | 6.3 ± 0.17 |  |  | 11 ± 0.25 |  | 17 ± 0.2 | 7 ± 0.16 |  | > 50 |  |  |  |  |  |  |  |
| CCCCCCn1cnc2c(NCc3ccc(OC)cc3)nc(NCc3ccccc3)nc21 [Compound 4l, N^2-Benzyl-9-hexyl-N^6-(4-methoxybenzyl)-9H-purine-2,6-diamine] | 9 ± 0.13 |  |  | > 50 |  | 15 ± 0.06 | 6.8 ± 0.14 |  | > 50 |  |  |  |  |  |  |  |
| CC(C)Cn1cnc2c(NCc3ccccc3)nc(NCc3ccccc3)nc21 [Compound 4c, N^2,N^6-Dibenzyl-9-isobutyl-9H-purine-2,6-diamine] | > 36 |  | 111 to 113 | > 36 | 0.61 | 22 ± 0.23 | > 36 |  | > 36 |  |  |  | > 50 | 36 ± 0.27 | > 50 | > 50 |
| COc1ccc(CNc2nc(NCc3ccccc3)nc3c2ncn3C(C)C)cc1 [Compound 4g, N^2-Benzyl-9-isopropyl-N^6-(4-methoxybenzyl)-9H-purine-2,6-diamine] | 10.7 ± 0.18 | 1.40 | 69 to 70 | > 50 |  | 15 ± 0.23 | 7.1 ± 0.11 | 2.11 | 22 ± 0.13 |  |  |  |  |  |  |  |
